From US20240301003A1 (NoNO Inc., priority 2021, published 2024)
Like-named read-outs stand apart in the source and are kept apart here. Where a SMILES comes first, the peptide text is derived from it. Where no end group is shown, it is not given here.

Key:
[1] = cited from earlier work
[2] = Plasmin sensitivity: peptides in PBS challenged with 10 ug/ml plasmin, HPLC; conditions: isolated enzyme plasmin
[3] = Renal biomarkers or electrolyte imbalance after administration to rats (Table 7); assay type: in vivo
Protocol: NoNO42 was tested for effect on various renal biomarkers or electrolyte imbalance in comparison with nerinetide after administration to rats as shown in Table 7.

[4] = rat, in vivo
Protocol: Blood plasma samples were collected before injection and at 10, 15, 20, 30, 45, 60 min post-dose. Each point represents the mean (±SD) of three animals per group.

[5] = rat, in vivo; for Weight: iv
plasmin [6] = target: T1, plasmin (Homo sapiens, UniProt P00747); experiment: in vitro; conditions: isolated enzyme plasmin
T1 sequence (P00747 581-810 limits assumed, species assumed): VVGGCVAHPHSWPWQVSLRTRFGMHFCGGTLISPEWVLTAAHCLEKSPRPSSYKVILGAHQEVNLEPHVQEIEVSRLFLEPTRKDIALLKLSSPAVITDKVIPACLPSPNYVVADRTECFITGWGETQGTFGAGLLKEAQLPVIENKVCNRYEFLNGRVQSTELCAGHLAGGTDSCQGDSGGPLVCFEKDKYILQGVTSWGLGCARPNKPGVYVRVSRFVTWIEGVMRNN
T1 sequence (P00747 97-580 partner limits assumed, species assumed): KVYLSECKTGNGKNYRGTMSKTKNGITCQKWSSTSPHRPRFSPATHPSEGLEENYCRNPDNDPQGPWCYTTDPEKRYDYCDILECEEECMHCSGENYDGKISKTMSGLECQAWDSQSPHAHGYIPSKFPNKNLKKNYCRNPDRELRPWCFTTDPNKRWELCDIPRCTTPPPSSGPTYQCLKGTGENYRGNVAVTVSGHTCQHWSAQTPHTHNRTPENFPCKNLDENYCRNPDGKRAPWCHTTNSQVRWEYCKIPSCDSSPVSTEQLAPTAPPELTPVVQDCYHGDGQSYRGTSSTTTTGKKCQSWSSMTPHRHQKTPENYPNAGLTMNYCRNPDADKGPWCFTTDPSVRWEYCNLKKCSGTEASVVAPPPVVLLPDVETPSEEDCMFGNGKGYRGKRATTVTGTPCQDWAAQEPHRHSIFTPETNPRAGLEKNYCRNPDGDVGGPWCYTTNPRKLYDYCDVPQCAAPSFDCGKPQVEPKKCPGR
NMDAR2B:PSD-95 complexes = target: T2, NMDAR2B:PSD-95 complexes (Rattus norvegicus, UniProt P31016); experiment: Dissociation of NMDAR2B:PSD-95 complexes after 3PVo, immunoprecipitation and Western blotting; assay type: in vivo, Sprague-Dawley rats; conditions: 7.6 mg/kg 1 hr after stroke onset (3PVo), brains harvested 2 h after onset
T2 construct: Cortical stroke areas were collected for analysis; from tissue; host or cells: rat brain cortex (stroke area) after in vivo dosing
T2 sequence (P31016 whole entry, one chain of several): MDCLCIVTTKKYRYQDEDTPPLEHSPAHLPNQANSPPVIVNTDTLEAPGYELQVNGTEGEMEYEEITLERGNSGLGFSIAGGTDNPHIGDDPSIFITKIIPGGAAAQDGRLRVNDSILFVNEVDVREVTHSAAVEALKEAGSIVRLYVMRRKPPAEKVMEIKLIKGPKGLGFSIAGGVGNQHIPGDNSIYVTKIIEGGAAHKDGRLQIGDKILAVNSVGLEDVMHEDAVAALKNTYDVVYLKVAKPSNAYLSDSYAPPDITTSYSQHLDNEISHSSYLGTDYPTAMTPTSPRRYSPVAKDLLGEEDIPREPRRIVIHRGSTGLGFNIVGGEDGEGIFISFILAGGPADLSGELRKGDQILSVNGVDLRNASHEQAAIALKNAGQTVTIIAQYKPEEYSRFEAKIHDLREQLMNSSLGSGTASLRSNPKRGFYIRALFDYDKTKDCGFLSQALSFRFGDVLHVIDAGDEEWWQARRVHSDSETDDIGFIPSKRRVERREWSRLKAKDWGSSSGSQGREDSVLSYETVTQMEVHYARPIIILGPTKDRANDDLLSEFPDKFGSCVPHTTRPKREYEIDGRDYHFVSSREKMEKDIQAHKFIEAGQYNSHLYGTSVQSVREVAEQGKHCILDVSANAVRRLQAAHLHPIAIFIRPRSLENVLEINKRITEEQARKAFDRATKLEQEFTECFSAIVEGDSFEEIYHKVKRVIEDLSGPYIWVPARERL
Protocol: Sprague-Dawley rats were subject to three pial vessel model (3PVo). […] Brains were harvested 2 h after stroke onsets. Cortical stroke areas were collected for analysis. Immunoprecipitations were performed with anti-PSD-95 or anti-NMDAR2B. The amount of PSD-95 and NMDAR2B in samples was analyzed by Western blotting. Reduction in PSD-95-NMDAR2B complex formation was assessed by fold decrease of placebo versus treatment.

[7] = Plasma concentrations 15 minutes post subcutaneous dose (animals of the 3PVO model); assay type: in vivo, rat; conditions: single subcutaneous administration, 2.5, 7.6, 25 mg/kg
Protocol: Unlike transient models of stroke in rats where much lower doses are required for neuroprotection, neuroprotection in 3 pial vessel occlusion models of stroke seems to require plasma concentrations of nerinetide at or above 2 ug/mL (or molar equivalent). […] Although the plasma levels continue to increase through about 3 hours then decrease, it is important to achieve rapid accumulation in the blood and brain for emergency indications like stroke. […] For pharmacokinetic sample analysis, calibration standard samples at concentrations of 0, 2.5, 5, 10, 15, 20 and 40 ug/mL of nerinetide were prepared by spiking 1 μL of the appropriate stock to 100 μL of plasma. […] Data is presented as mean±SD.

tMCAo = experiment: Dose range of nerinetide in rat tMCAo model; assay type: in vivo, rats
Protocol: Nerinetide and lodoxamide was administered to rats intravenously as a bolus injection, 60 minutes after tMCAo. […] Bars in A and represent mean±SD, with all individual data points plotted. Asterisks in A indicate P<0.01 when compared to the vehicle group (one-way ANOVA post hoc Tukey's correction for multiple comparisons test) N=12-14 animals/group. […] Significant differences are indicated with an asterisk when compared to the vehicle group (Kruskal-Wallis analysis of variance on ranks with a post-hoc Dunn's correction for multiple comparisons test, *P<0.01). Vehicle: PBS alone. […] Doses up to at least 25 mg/kg were also effective with the highest efficacy being at about 15 mg/kg. The observed wide therapeutic range was attributable to nerinetide, and not to the mast cell degranulation inhibitor lodoxamide, which was present in all solutions to avoid potential hypotension due to histamine release.

tPA = tPA (Homo sapiens, UniProt P00750)
Sequence of tPA (P00750 36-562): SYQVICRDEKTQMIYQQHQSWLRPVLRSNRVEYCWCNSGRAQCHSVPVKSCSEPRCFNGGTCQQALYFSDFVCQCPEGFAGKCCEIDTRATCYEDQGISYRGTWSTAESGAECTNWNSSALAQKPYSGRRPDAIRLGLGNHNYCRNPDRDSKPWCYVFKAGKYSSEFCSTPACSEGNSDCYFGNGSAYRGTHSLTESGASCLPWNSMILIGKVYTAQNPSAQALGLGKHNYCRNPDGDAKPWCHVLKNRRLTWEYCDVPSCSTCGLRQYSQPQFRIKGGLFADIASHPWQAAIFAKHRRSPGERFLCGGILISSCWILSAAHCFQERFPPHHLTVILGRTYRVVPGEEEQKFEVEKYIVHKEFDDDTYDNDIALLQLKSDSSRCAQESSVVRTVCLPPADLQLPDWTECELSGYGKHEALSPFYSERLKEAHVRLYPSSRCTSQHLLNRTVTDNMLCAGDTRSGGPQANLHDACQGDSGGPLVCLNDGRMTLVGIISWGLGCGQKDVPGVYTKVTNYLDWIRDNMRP

[8] = human studies, 2.6 mg/kg dose; cited from earlier work
[9] = humans; cited from earlier work
Weight gain of rats = conditions: IV 7.6 mg/kg
plasmin [10] = target: T1, plasmin; assay type: in vitro ADME; parameters: challenged with 10 ug/ml plasmin at 37 C
Source text: Plasmin is a serum protease induced by thrombolytic agents, such as tPA. Plasmin cleavage sites can occur on the C-terminal side of basic amino acids residues in a peptide formed of L-amino acids. NA-1 was digested with plasmin and the products analyzed by mass spectrometry. […] However, cleavage at the other two sites may occur to a lesser extent.

plasmin [11] = target: T1, plasmin; assay type: in vitro ADME; parameters: challenged with 10 ug/ml plasmin at 37 C; remark: listed apart in the source
PSD95PDZ2 = PSD95PDZ2 (Homo sapiens, UniProt P78352); experiment: Competitive ELISA with biotinylated-NA-1; conditions: PSD-95 domain 2, FIG. 12
Sequence of PSD95PDZ2 (P78352 160-246 limits assumed): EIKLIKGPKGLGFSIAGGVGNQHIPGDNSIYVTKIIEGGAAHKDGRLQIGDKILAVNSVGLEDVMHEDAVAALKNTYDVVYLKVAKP

[12] = Degradation in rat plasma in vitro, alone or with rt-PA or TNK
Source text: (§1) Samples were collected at 6 different time points.
(§2) The experiment was repeated using TNK-tissue plasminogen activator in place of tPA.

[13] = Degradation in human plasma in vitro, alone or with rt-PA or TNK
Source text: as §1, §2

[14] = tested on: 3-pial vessel occlusion model of stroke
plasmin [15] = target: T1, plasmin; experiment: Plasmin sensitivity: peptides in PBS challenged with 10 ug/ml plasmin, HPLC
[16] = Pharmacokinetic analysis in rats (subcutaneous, pulmonary instillation, intravenous, intramuscular), HPLC
Protocol: Rats were anaesthetized in the supine position (Isoflurane 1.5--%) and allowed to breath spontaneously in 0.5 L/min 02. The left femoral artery was cannulated for blood sampling.
Test agents were prepared at the stablish concentration in a total volume of vehicle. Pulmonary instillation was performed by intubation with a 14G catheter connected to a 1 cc syringe and the test agent will be delivered through the catheter. Subcutaneous (SQ or SC) injection was injected into the area of the left flank, no more than 2 ml of total volume per site.
Each dose was evaluated in 3 rats for each administration strategy. […] For the first experiment, evaluating two different administration routes (SQ and PI), blood samples were collected at 8 different timepoints: Pre and at 7 additional times (1, 2.5, 5, 10, 15, 30, 60 min) post dose (250 ul/sample).
HPLC quantification: Plasma was separated from blood and stored at −−−80° C. until used. […] Standard curves for HPLC were generated from plasma samples spiked with known quantities of test agent.

[17] = IV bolus with lodoxamide 60 minutes after tMCAo

N[C@@H](Cc1ccc(O)c(O)c1)C(=O)O [Levodopa]
half-life [1]: 1.5 h

CC[C@H](C)[C@H](NC(=O)[C@H](CO)NC(=O)[C@H](CO)NC(=O)[C@H](CC(C)C)NC(=O)[C@H](CCCCN)NC(=O)[C@H](CCCNC(=N)N)NC(=O)[C@@H](CCCNC(=N)N)NC(=O)[C@H](CCCNC(=N)N)NC(=O)[C@H](CCC(N)=O)NC(=O)[C@@H](CCCNC(=N)N)NC(=O)[C@H](CCCNC(=N)N)NC(=O)[C@H](CCCCN)NC(=O)[C@@H](CCCCN)NC(=O)[C@H](CCCNC(=N)N)NC(=O)CNC(=O)[C@@H](N)Cc1ccc(O)cc1)C(=O)N[C@@H](CCC(=O)O)C(=O)N[C@@H](CO)C(=O)N[C@@H](CC(=O)O)C(=O)N[C@H](C(=O)O)C(C)C [NA-4.4.3] (HELM PEPTIDE1{Y.G.R.[dK].K.R.[dR].Q.R.[dR].R.K.L.S.S.I.E.S.D.V}$$$$V2.0; N-terminus and C-terminus assumed)
remaining at 0.5 h, 65 ug/ml [2]: > 85%

CC[C@H](C)[C@H](NC(=O)[C@H](CO)NC(=O)[C@H](CO)NC(=O)[C@H](CC(C)C)NC(=O)[C@@H](CCCCN)NC(=O)[C@H](CCCNC(=N)N)NC(=O)[C@H](CCCNC(=N)N)NC(=O)[C@@H](CCCNC(=N)N)NC(=O)[C@H](CCC(N)=O)NC(=O)[C@@H](CCCNC(=N)N)NC(=O)[C@H](CCCNC(=N)N)NC(=O)[C@H](CCCCN)NC(=O)[C@H](CCCCN)NC(=O)[C@@H](CCCNC(=N)N)NC(=O)CNC(=O)[C@@H](N)Cc1ccc(O)cc1)C(=O)N[C@@H](CCC(=O)O)C(=O)N[C@@H](CO)C(=O)N[C@@H](CC(=O)O)C(=O)N[C@H](C(=O)O)C(C)C [NoNO42] (HELM PEPTIDE1{Y.G.[dR].K.K.R.[dR].Q.[dR].R.R.[dK].L.S.S.I.E.S.D.V}$$$$V2.0; N-terminus and C-terminus assumed)
renal biomarkers or electrolyte imbalance in comparison with nerinetide ([3]; rat, in vivo): No significant difference was observed
Creatinine ([3]; rat, in vivo, iv, 3.8 mg/kg): 0.2 mg/dL
iCa ([3]; rat, in vivo, iv, 5.7 mg/kg): 1.47 mmol/L
Creatinine ([3]; rat, in vivo, iv, 7.6 mg/kg): 0.2 mg/dL
tCO2 ([3]; rat, in vivo, iv, 7.6 mg/kg): 33.7 mmol/L
Na+ ([3]; rats, IV 3.8 mg/kg, Day 4): 137.3 mmol/L
Cl ([3]; rats, IV 3.8 mg/kg, Pre): 98.3 mmol/L
iCa ([3]; rats, IV 3.8 mg/kg, Pre): 1.43 mmol/L
Na+ ([3]; rats, IV 5.7 mg/kg, Day 4): 137.3 mmol/L
iCa ([3]; rats, IV 5.7 mg/kg, Day 14): 1.46 mmol/L
iCa ([3]; rats, IV 5.7 mg/kg, Pre): 1.46 mmol/L
iCa ([3]; rats, IV 7.6 mg/kg, Day 4): 1.46 mmol/L
tCO2 ([3]; rats, IV 7.6 mg/kg, Day 4): 35.7 mmol/L
Cl ([3]; rats, IV 7.6 mg/kg, Day 14): 98.3 mmol/L
Hgb ([3]; rats, IV 7.6 mg/kg, Day 14): 13.4 g/dL
Na+ ([3]; rats, IV 7.6 mg/kg, Day 14): 137.3 mmol/L
tCO2 ([3]; rats, IV 7.6 mg/kg, Day 14): 35.7 mmol/L
CMax of NoNO42 5.7 mg/kg versus nerinetide 7.6 mg/kg [4]: same CMax
weight gain compared with nerinetide [5]: No significant difference was seen
Weight ([5]; 3.8 mg/kg): 342.3 grams
Weight ([5]; 5.7 mg/kg): 341.7 grams
Weight ([5]; 7.6 mg/kg): 331.0 grams
remaining at 0.5 h, 65 ug/ml (plasmin [6]): ~100%

YGRKKRRQRRRKLSSIESDV [NA-1, reference compound]
dissociation of preformed NMDAR2B:PSD-95 complexes (NMDAR2B:PSD-95 complexes): able to dissociate preformed NMDAR2B:PSD-95 complexes
relation between treatment dose and Cmax [7]: dose proportionality between the treatment dose and the Cmax
dose of highest efficacy (tMCAo; [17]): about 15 mg/kg
doses up to which nerinetide was effective (tMCAo; [17]): at least 25 mg/kg
lowest dose producing significant reduction in infarct volume and improvement in neurological function (tMCAo; IV bolus with lodoxamide 60 minutes after tMCAo, 24 hours): 0.25 mg/kg
effective dosage range (reducing infarction size and neurologic deficit) (tMCAo; rat tMCAo model, at least this range): 0.25-25 mg/kg
Anion Gap ([3]; rats, IV 7.6 mg/kg, Day 4): 7.3 mmol/L
BUN ([3]; rats, IV 7.6 mg/kg, Day 4): 13.7 mg/dL
Cl ([3]; rats, IV 7.6 mg/kg, Day 4): 100.7 mmol/L
Creatinine ([3]; rats, IV 7.6 mg/kg, Day 4): 0.2 mg/dL
Glucose ([3]; rats, IV 7.6 mg/kg, Day 4): 178.0 mg/dL
Hct ([3]; rats, IV 7.6 mg/kg, Day 4): 39% ± % PCV
Hgb ([3]; rats, IV 7.6 mg/kg, Day 4): 13.4 g/dL
K+ ([3]; rats, IV 7.6 mg/kg, Day 4): 4.8 mmol/L
Na+ ([3]; rats, IV 7.6 mg/kg, Day 4): 137.3 mmol/L
iCa ([3]; rats, IV 7.6 mg/kg, Day 4): 1.43 mmol/L
tCO2 ([3]; rats, IV 7.6 mg/kg, Day 4): 35.0 mmol/L
Anion Gap ([3]; rats, IV 7.6 mg/kg, Day 14): 9.0 mmol/L
BUN ([3]; rats, IV 7.6 mg/kg, Day 14): 16.7 mg/dL
Cl ([3]; rats, IV 7.6 mg/kg, Day 14): 98.3 mmol/L
Creatinine ([3]; rats, IV 7.6 mg/kg, Day 14): 0.2 mg/dL
Glucose ([3]; rats, IV 7.6 mg/kg, Day 14): 253.3 mg/dL
Hct ([3]; rats, IV 7.6 mg/kg, Day 14): 38% ± % PCV
Hgb ([3]; rats, IV 7.6 mg/kg, Day 14): 13.0 g/dL
K+ ([3]; rats, IV 7.6 mg/kg, Day 14): 4.4 mmol/L
Na+ ([3]; rats, IV 7.6 mg/kg, Day 14): 136.7 mmol/L
iCa ([3]; rats, IV 7.6 mg/kg, Day 14): 1.45 mmol/L
tCO2 ([3]; rats, IV 7.6 mg/kg, Day 14): 34.3 mmol/L
Anion Gap ([3]; rats, IV 7.6 mg/kg, Pre): 7.3 mmol/L
BUN ([3]; rats, IV 7.6 mg/kg, Pre): 15.0 mg/dL
Cl ([3]; rats, IV 7.6 mg/kg, Pre): 98.0 mmol/L
Creatinine ([3]; rats, IV 7.6 mg/kg, Pre): 0.2 mg/dL
Glucose ([3]; rats, IV 7.6 mg/kg, Pre): 251.7 mg/dL
Hct ([3]; rats, IV 7.6 mg/kg, Pre): 38% ± % PCV
Hgb ([3]; rats, IV 7.6 mg/kg, Pre): 13.0 g/dL
K+ ([3]; rats, IV 7.6 mg/kg, Pre): 4.8 mmol/L
Na+ ([3]; rats, IV 7.6 mg/kg, Pre): 135.7 mmol/L
iCa ([3]; rats, IV 7.6 mg/kg, Pre): 1.46 mmol/L
tCO2 ([3]; rats, IV 7.6 mg/kg, Pre): 35.7 mmol/L
degradation, control treatment with tPA (tPA): no degradation
direct cleavage by tPA or TNK (tPA): Neither tPA nor TNK directly cleaves NA-1
effective plasma concentration [8]: ~10 µg/mL
doses at which drops in blood pressure have been observed [9]: above 3.75 mg/kg
Weight (Weight gain of rats; Day 4): 368.0 grams
Weight (Weight gain of rats; Day 14): 420.0 grams
Weight (Weight gain of rats; Pre): 360.3 grams
plasmin cleavage sites (plasmin [10]): cleavage at seven of nine potential sites
degradation on treatment with plasmin (plasmin [11]): rapidly degraded
EC50 (compared between peptides) (PSD95PDZ2): about the same within experimental error
degradation with coadministration of TNK ([12]; rat plasma (FIG. 8)): rapid degradation
NA-1 content decay with tPA versus NA-1 alone ([12]; rat plasma in vitro, NA-1 65 ug/mL, rt-PA 22.5-135 ug/mL): decayed much more rapidly when tPA was co-administered
time to decay to zero ([12]; rat plasma in vitro, treated with tPA): ≤ 15 min
degradation with coadministration of TNK ([13]; human plasma (FIG. 7)): rapid degradation
NA-1 content decay with tPA versus NA-1 alone ([13]; human plasma in vitro, NA-1 65 ug/mL, rt-PA 22.5-135 ug/mL): decayed much more rapidly when tPA was co-administered
infarct volume compared to placebo ([14]; 7.6 mg/kg subcutaneous bolus 60 minutes after onset of stroke): failed to achieved infarct volume reduction
infarct volume compared to placebo ([14]; 25 mg/kg subcutaneous bolus 60 minutes after onset of stroke): significant reduction in infarct volume
plasma concentration required for neuroprotection ([14]; 3 pial vessel occlusion models of stroke): ≥ 2 µg/mL
time to degradation (plasmin [15]; 10 ug/mL plasmin (FIG. 29)): ≤ 5 min
degradation by plasmin (plasmin [15]; about 65 ug/ml peptide in PBS, 10 ug/ml plasmin, 37 C, HPLC): completely degraded in about five minutes
AUC versus intravenous NA-1 ([16]; intramuscular): somewhat higher
CMax versus intravenous NA-1 ([16]; intramuscular): lower
half-life versus intravenous NA-1 ([16]; intramuscular): higher
AUC versus the same dose of intravenous NA-1 ([16]; subcutaneous): somewhat lower
CMax versus the same dose of intravenous NA-1 ([16]; subcutaneous): much lower
half-life versus intravenous NA-1 ([16]; subcutaneous): longer
